{
  "source": "patent US20260325504A1",
  "about": "“Genetically Engineered Human Pituitary Corticotroph Tumor Organoids Exhibit Divergent Responses to Selective Glucocorticoid Receptor Modulators” (Corcept Therapeutics Incorporated, priority 2022, published 2026)",
  "format_in_all_cases": "cell-based, human",
  "key": {"[1]": {"test_system": "SSTR2", "test": "Differential expression of SSTR2 (qRT-PCR) in iPSC generated pituitary organoids", "conditions": "for expression of SSTR2 / induction in SSTR2 expression, mifepristone compared to relacorilant: iPSC organoids; for expression of SSTR2: 500 nM, vs vehicle; for SSTR2 induction relative to SSTR5: PitNET organoids, summary; for induction in SSTR2 expression, mifepristone compared to relacorilant: 500 nM each, FIG. 5A", "description": "(§1) Sonic Hedgehog (SHH) was withdrawn from the organoid growth media 16 hours prior to treatment. The experimental treatment groups included: vehicle (Veh), mifepristone (500 nM, Selleckchem S2606), GANT61 (5 μM, Stemcell Technologies 73692), ketoconazole (Keto, 10 μM, Selleckchem S1353), pasireotide (Pas, 100 nM, Target Mol TP2207-SB001), octreotide (Oct, 100 nM, Selleckchem P1017), mifepristone plus GANT61, mifepristone plus Keto, mifepristone plus Pas, relacorilant (500 nM, Corcept Therapeutics CORT125134), relacorilant plus Pas, relacorilant plus Oct, or dexamethasone (Dexa, 100 nM, SIGMA S4902). In the combination treatments, cultures were pretreated with the GANT61, Keto, Pas or Oct for 2 hours prior to treatment with mifepristone or Rela. PitNET tissue derived organoids hPITO36, hPITO37, hPITO38, hPITO39, and hPITO40 were treated with the following experimental conditions: Vehicle (1), pasireotide (2), relacorilant (3), relacorilant & pasireotide (4), mifepristone (5), mifepristone & pasireotide (6). The IC50 values used for each hPITO line for each drug were determined based on dose responses (FIG. 12). All organoid cultures were treated for 48 hours prior to analysis.\nRNA was extracted from PitNET tissue or iPSC generated organoids using TRI Reagent® (Molecular Research Center Inc TR118) and the High Capacity cDNA Reverse Transcription Kit (Applied Biosystems, Foster City, CA) was used for cDNA synthesis of RNA following the recommended protocol. For each sample, 60 ng RNA was reverse transcribed to yield approximately […] total cDNA that was then used for the qRT-PCR. Pre-designed real-time polymerase chain reaction assays were purchased for the following genes: TPit (Thermo Fisher Scientific 4331182 Hs00193027), SF1 (Thermo Fisher Scientific 4331182 Hs00610436), SSTR2 (Thermo Fisher Scientific 4331182 Hs00265624_s1), SSTR5 (Thermo Fisher Scientific 4331182 Hs00990407_s1), POMC (Thermo Fisher Scientific 4331182 Hs01596743_ml), hPRT (Thermo Fisher Scientific 4331182 Hs02800695_ml), and FKBP5 (Thermo Fisher Scientific 4331182 Hs01561006_m1). Polymerase chain reaction amplifications were performed in a total volume of 20 μL containing 20× TaqMan Expression Assay primers, 2× TaqMan Universal Master Mix (Applied Biosystems, TaqMan® Gene Expression Systems), and cDNA template. Each polymerase chain reaction amplification was performed in triplicate wells in a StepOne Real-Time PCR System (Applied Biosystems) by using the following conditions: 500C 2 minutes, 95° C. 10 minutes, 95° C. 15 seconds (denature) and 60° C. 1 minute (anneal/extend) for 40 cycles. Fold change was calculated as the following: (Ct-Ct high)=n target, 2ntarget/2nHPRT=fold change where Ct=threshold cycle. The results were expressed as average fold change in or differential gene expression relative to control, with HPRT used as an internal control according to Livak and Schmittgen."}, "[2]": {"test_system": "SSTR5", "test": "Spectral flow cytometry, SSTR5 positive cells, iPSCUSP48MV organoids", "conditions": "48 h, FIGS. 8B, F", "description": "as §1\nThe multicolor flow cytometry antibody panel was designed using the Cytek® Full Spectrum Viewer online tool to calculate the similarity index. Organoids were harvested in cold Serum-Free Defined Medium media and incubated with Zombie (BioLegend 423107, 1:100) for 15 minutes in the dark at room temperature, followed by incubation with fluorochrome-conjugated/unconjugated primary surface or cytoplasmic antibodies (Table 6) at 4° C. for 30 minutes. Cells were then washed with Cell Staining Buffer (BioLegend 420-201) and incubated at 4° C. for 30 minutes with secondary antibodies (Table 6). Cells were fixed using Cytofix/Cytoperm™ Fixation/Permeabilization Solution (BD Biosciences 554714) and washed with Fixation/Permeabilization wash buffer according to the recommended protocol. […] Data was acquired using the Cytek® Aurora, analyzed using Cytobank Premium software (Beckman Coulter)."}, "[3]": {"test_system": "iPSC^ctrl organoids", "test": "EdU uptake (proliferation) in iPSCctrl organoids", "conditions": "compound alone, 500 nM, 48 h", "description": "(§2) iPSCs were stained for pituitary specific hormones including luteinizing hormone (LH), follicle-stimulating hormone (FSH), growth hormone (GH), prolactin (PRL), ACTH, cytokeratin 8/18 (CAM5.2), pituitary transcription factor PIT-1 and neuroendocrine marker Synaptophysin (Table 5). Cultures were immunostained for proliferation marker EdU (Click-IT EdU Alexa Fluor 555 Imaging Kit, Thermo Fisher Scientific C10338). Antibody dilutions were determined based on manufacturer guidelines and antibody titration (Table 5). Staining was conducted according to previously published protocols. Briefly, organoids and iPSCs grown in 8-well glass bottom chamber slides were fixed using 3.7% formaldehyde, washed with DPBS, permeabilized with 0.5% Triton X-100 (SIGMA X-100, PBS-T, 20 min at room temperature), washed with 0.01% PBS-T, and blocked with 2% donkey serum (Jackson Immuno Research 017-000-121) for 1 hour at room temperature. After blocking, primary antibodies were added and incubated overnight at 4° C. Slides were washed with 0.01% PBS-T and incubated with secondary antibodies (Table 5) with Hoechst (Thermo Fisher Scientific H1399) for 1 hour at room temperature. Organoids were washed and stored in PBS at 4° C. until microscopic analysis. High content confocal microscopy was performed using the Nikon Ti2-E Inverted Microscope (with a Crest X-Light V2 L-FOV Spinning Disk Confocal) at the University of Arizona Cancer Center, or a ZEISS LSM880 34 channel Laser Scanning Confocal Microscope at University of Arizona Marley Imaging Core. Fluorescence intensity was quantified as the percentage of marker-positive cells versus total cells, using Nikon Elements Software (Version 5.21.05). Proliferation for each iPSC line was quantified as the percentage of EdU-positive cells versus total cells.\nas §1, with “PitNET tissue derived organoids hPITO36, hPITO37, hPITO38, hPITO39, and hPITO40 were treated with the following experimental conditions: Vehicle (1), pasireotide (2), relacorilant (3), relacorilant & pasireotide (4), mifepristone (5), mifepristone & pasireotide (6).” left out, “All organoid cultures were treated for 48 hours prior to analysis.” left out"}, "[4]": {"test_system": "iPSC^USP48MV organoids", "test": "EdU uptake (proliferation) in iPSCUSP48MV organoids", "conditions": "compound alone, 500 nM, 48 h", "description": "as §2\nas §1, with “PitNET tissue derived organoids hPITO36, hPITO37, hPITO38, hPITO39, and hPITO40 were treated with the following experimental conditions: Vehicle (1), pasireotide (2), relacorilant (3), relacorilant & pasireotide (4), mifepristone (5), mifepristone & pasireotide (6).” left out, “All organoid cultures were treated for 48 hours prior to analysis.” left out"}},
  "note": "Entries after “also recorded” stand apart in the source; their conditions may differ.",
  "data": [
    {"smiles": "Cn1cc(S(=O)(=O)N2CCC3=Cc4c(cnn4-c4ccc(F)cc4)C[C@]3(C(=O)c3cc(C(F)(F)F)ccn3)C2)cn1", "note": "[relacorilant, (R)-(1-(4-fluorophenyl)-6-((1-methyl-1H-pyrazol-4-yl)sulfonyl)-4,4a,5,6,7,8-hexahydro-1H-pyrazolo[3,4-g]isoquinolin-4a-yl) (4-(trifluoromethyl)pyridin-2-yl) methanone]", "values": [
      {"measurement": "expression of SSTR2", "setting": "[1]; 48 h", "result": "significant induction; also recorded: significantly induced the expression"},
      {"measurement": "magnitude of SSTR5 induction, relacorilant vs mifepristone", "setting": "[2]", "result": "significantly greater than that of mifepristone"},
      {"measurement": "percentage of SSTR5 positive cells", "setting": "[2]", "result": "significant increase"},
      {"measurement": "proliferation (EdU uptake)", "setting": "[3]", "result": "did not induce organoid proliferation"},
      {"measurement": "proliferation (EdU uptake)", "setting": "[4]", "result": "did not induce organoid proliferation"}
    ]},
    {"smiles": "CC#C[C@]1(O)CC[C@H]2[C@@H]3CCC4=CC(=O)CCC4=C3[C@@H](c3ccc(N(C)C)cc3)C[C@@]21C", "note": "[mifepristone, 11β-(4-dimethylaminophenyl)-17ß-hydroxy-17α-(1-propynyl)-estra-4,9-dien-3-one]", "values": [
      {"measurement": "SSTR2 induction relative to SSTR5", "setting": "[1]", "result": "predominantly induced SSTR2 expression; also recorded: significantly greater induction in SSTR2 than SSTR5"},
      {"measurement": "SSTR2 induction relative to SSTR5", "setting": "[1]; listed as Mifepristone", "result": "induces SSTR2 with greater magnitude compared to SSTR5"},
      {"measurement": "induction in SSTR2 expression, mifepristone compared to relacorilant", "setting": "[1]; 48 h", "result": "preferentially induced the expression of SSTR2"},
      {"measurement": "induction in SSTR2 expression, mifepristone compared to relacorilant", "setting": "[1]; 48 h, listed as Mifepristone", "result": "significantly greater induction in SSTR2 expression when compared to relacorilant"},
      {"measurement": "expression of SSTR2", "setting": "[1]; 48 h", "result": "significant induction; also recorded: significantly induced the expression"},
      {"measurement": "differential expression of SSTR2", "setting": "[1]; iPSCctrl organoids, compound alone, 48 h, FIG. 5C, D", "result": "significantly induced"},
      {"measurement": "percentage of SSTR5 positive cells", "setting": "[2]", "result": "significant increase"},
      {"measurement": "proliferation (EdU uptake)", "setting": "[3]", "result": "significant increase in cell proliferation"},
      {"measurement": "proliferation (EdU uptake)", "setting": "[4]", "result": "significant increase in cell proliferation"}
    ]}
  ]
}
